From US10144929B2, “Polypeptide inhibitors of Smad3 polypeptide activities” (Mayo Foundation for Medical Education and Research, priority 2016, dated 2018)
Entries after “also recorded” stand apart in the source; their conditions may differ.

Key:
[1] = test system: Smad3 targets (PAI-1, CTGF, Smad7); assay: RT-PCR/qPCR/Western of Smad3 responsive genes in AKR-2B cells; type: cell-based; conditions: 5 ng/mL TGFβ, 24 hours
Protocol: (§1) FIGS. 2A-C. TAT-SH3 inhibits Smad3-dependent responses. (A) AKR-2B cells were transiently transfected with a Smad3 (3TP), Smad2 (ARE), or Smad1/5/8 (BRE) reporter construct, and luciferase activity determined following 12 hours incubation in the absence (−) or presence (+) of the indicated ligand (5 ng/mL TGFβ; 10 ng/mL BMP4) or TAT-SNX9(SH3) fusion polypeptide (1.5 μM). Data represent the mean+/−SEM of three experiments. (B) RT-PCR analysis of Smad3 (PAI-1 and CTGF) and Smad2 (MMP2) responsive gene following 24 hour treatment of AKR-2B cells with the indicated concentration of TAT-SNX9(SH3) fusion polypeptide or 5 ng/mL TGFβ. Loading was verified by GAPDH expression. (C) Soft agar colony formation was performed following seven days growth in the presence (+) or absence (−) of TGFβ (10 ng/mL) or the indicated TAT-SNX9(SH3) fusion polypeptide (1.5 μM). […]
(§2) FIGS. 3A-E. Inhibition of Smad3 signaling by a defined region of the SH3 domain in SNX9. […] (B) Nuclear fractions were prepared and assessed as in FIG. 1B following transduction with the indicated TAT-SNX9(SH3) fusion polypeptide (Left). Quantitation (mean+/−sd) of nuclear pSmad2 or pSmad3 from 2 experiments (Right). (C) Immunofluorescence of nuclear Smad3 was determined as in FIG. 1C from 30 cells in each of two experiments in the absence (−) or presence (+) of 5 ng/mL TGFβ and the indicated TAT-SNX9(SH3) fusion polypeptide (1.5 μM). […]

[2] = test system: Smad2 targets (MMP2, Goosecoid, Furin, MixL); assay: RT-PCR/qPCR of Smad2 responsive genes in AKR-2B cells; type: cell-based; conditions: 5 ng/mL TGFβ, 24 hours
Protocol: as §1, §2

Substance	TGFβ induction of Smad3 targets / Smad3-dependent transcriptional responses [1]	induction of Smad2 targets [2]
TAT-SH3-2: TAT-SNX9(SH3) fusion polypeptide having SNX9 amino acids 21-51 (31 mer) (TVNEGEIITITNPDVGGGWLEGRNIKGERGL; left off: small tags and cut ends)	prevented Smad3-dependent transcriptional responses; also recorded: prevented TGFβ induction of Smad3 targets such as CTGF, PAI-1, and Smad7 to a similar degree as inhibition of TβRI	Neither polypeptide impacted the induction of Smad2 targets
TAT-SH3-2M: TAT-SH3-2 with G to V point mutations at amino acids 36-38; inactive TAT-SNX9 peptide unable to bind pSmad3 (TVNEGEIITITNPDVVVVWLEGRNIKGERGL; left off: small tags and cut ends)	abolished the inhibitory effect	Neither polypeptide impacted the induction of Smad2 targets
